From patent publication US8822467B2 (Ligand Pharmaceuticals Inc., priority 2009, dated 2014) come the findings set out here.

In general, IC50 refers to the point on the concentration scale where inhibition reaches its midpoint.

The first assay concerns the target T1, human CRTH2 (Homo sapiens, UniProt Q9Y5Y4).
T1 construct: expressed in transfected cells
T1 sequence (Q9Y5Y4 1-395): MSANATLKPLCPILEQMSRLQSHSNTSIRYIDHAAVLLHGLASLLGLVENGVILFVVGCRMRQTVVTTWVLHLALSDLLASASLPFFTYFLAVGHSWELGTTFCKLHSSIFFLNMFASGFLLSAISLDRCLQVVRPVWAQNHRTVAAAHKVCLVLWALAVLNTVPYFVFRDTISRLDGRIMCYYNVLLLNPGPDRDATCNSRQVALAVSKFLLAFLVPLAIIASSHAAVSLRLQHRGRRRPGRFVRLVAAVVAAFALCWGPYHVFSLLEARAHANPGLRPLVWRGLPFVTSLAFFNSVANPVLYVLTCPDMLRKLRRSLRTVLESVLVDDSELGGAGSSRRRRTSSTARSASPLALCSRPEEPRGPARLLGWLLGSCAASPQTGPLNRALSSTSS
As to the kind of experiment: [35S]GTPγS binding assay (SPA) on membranes from CHO-K1 cells stably expressing human CRTH2, stimulated with 60 nM DHK-PGD2. It is filed as biochemical. The following applies: membranes of CHO-K1 cells expressing human CRTH2; 60 nM DHK-PGD2; Table 1; read-out: CRTH2 hGTPγS IC50. As to the method:
[^35S]GTPγS Binding Assay
SPA [^35S]G-TPγS binding was performed on membranes from CHO-K1 cells stably expressing human CRTH2. To a white, clear-bottomed 384-well plate, 4 μg membrane protein was incubated in the binding buffer (20 mM HEPES, pH 7.4, 10 mM MgCl2, 300 mM NaCl, 0.2% BSA) with 60 nM DHK-PGD2, 500 pM [^35S]GTPγS, 10 μM GDP, and 100 μg wheat germ agglutinin-coupled SPA beads (GE Healthcare) with and without increasing concentrations of compounds. The final assay volume was 40 μL and contained 1% DMSO. Samples were incubated for 2 h at ambient temperature. Plates were centrifuged 5 min at 1500 rpm. Plates were read after an additional 4 h using the Trilux 1450 Microbeta (PerkinElmer) with a 30 sec/well reading time.
As for `COc1ccc(S(=O)(=O)N(C)Cc2cc(-c3cc(F)cc(C#N)c3)c(OCC(=O)O)cc2F)cc1F` [Example 197, 2-(3-cyano-5-fluorophenyl)-(5-fluoro-4-((3-fluoro-4-methoxy-N-methylphenylsulfonamido)methyl)phenoxy)acetic acid], the IC50 came out at 0.0006 µM.

For the compound `COc1ccc(S(=O)(=O)NCc2ccc(OCC(=O)O)c(-c3cc(F)cc(C#N)c3)c2)cc1F` [Example 196, 2-(3-cyano-5-fluorophenyl)-4-((3-fluoro-4-methoxyphenylsulfonamido)methyl)phenoxyacetic acid], the IC50 was found to be 0.0007 µM.

Take `COc1cc(F)cc(-c2cc(CN(C)S(=O)(=O)c3ccc(F)c(F)c3)ccc2OCC(=O)O)c1` [Example 46, 2-(3-fluoro-5-methoxyphenyl)-4-((3,4-difluoro-N-methylphenylsulfonamido)methyl)phenoxyacetic acid]: the IC50 was found to be 0.0021 µM.

Still in this assay, the particulars now being: potency class symbols; Table 2; read-out: CRTH2 hGTPγS IC50.
As for `CN(Cc1ccc(OCC(=O)O)c(-c2cccc(Cl)c2)c1)S(=O)(=O)c1ccc(F)cc1` [Example 163, 2-(3-chlorophenyl)-4-((4-fluoro-N-methylphenylsulfonamido)methyl)phenoxyacetic acid], the IC50 was in the range of 1 to 10 µM.

`COc1cccc(-c2cc(CN(C)S(=O)(=O)c3ccccc3)ccc2OCC(=O)O)c1` [Example 151, 2-(3-methoxyphenyl)-4-((-N-methylphenylsulfonamido)methyl)phenoxyacetic acid]: the IC50 was 1 to 10 µM.

Consider `CN(Cc1ccc(OCC(=O)O)c(-c2cc(F)cc(C#N)c2)c1)S(=O)(=O)c1ccc(F)c(Cl)c1` [Example 55, 2-(3-cyano-5-fluorophenyl)-4-((3-chloro-4-fluoro-N-methylphenylsulfonamido)methyl)phenoxyacetic acid], for which the IC50 was under 0.1 µM.

In the case of `CN(Cc1ccc(OCC(=O)O)c(-c2cccc(C(=O)N3CCOCC3)c2)c1)S(=O)(=O)c1ccc(F)cc1` [Example 175, 2-(3-morpholinocarbonylphenyl)-4-((4-fluoro-N-methylphenylsulfonamido)methyl)phenoxyacetic acid], the concentration for half-maximal inhibition (IC50) fell in the range of 1 to 10 µM.

Consider `CN(Cc1ccc(OCC(=O)O)c(-c2cnn(C)c2)c1)S(=O)(=O)c1ccc(F)cc1` [Example 186, 2-(1-methyl-1H-pyrazol-4-yl)-4-((4-fluoro-N-methylphenylsulfonamido)methyl)phenoxyacetic acid], for which the IC50 lay within 1 to 10 µM.

On to `CN(Cc1ccc(OCC(=O)O)c(-c2cccc(C(F)(F)F)c2)c1)S(=O)(=O)C1CC1` [Example 181, 2-(3-trifluoromethylphenyl)-4-((N-methylcyclopropanesulfonamido)methyl)phenoxyacetic acid], for which the IC50 was 1 to 10 µM.

Take `CCOc1cc(F)cc(-c2cc(CN(C)S(=O)(=O)c3ccc(F)cc3)ccc2OCC(=O)O)c1` [Example 112, 2-(3-ethoxy-5-fluorophenyl)-4-((4-fluoro-N-methylphenylsulfonamido)methyl)phenoxyacetic acid]: the IC50 is 0.1 to 1 µM.

Take `C[C@@H](Oc1ccc(CN(C)S(=O)(=O)c2ccc(F)cc2)cc1-c1cccc(C(F)(F)F)c1)C(=O)O` [Example 35, (R)-2-(2-(3-trifluoromethylphenyl)-4-((4-fluoro-N-methylphenylsulfonamido)methyl)phenoxy)propanoic acid]: the IC50 was in the range of 1 to 10 µM.

Take `N#Cc1cc(F)cc(-c2cc(CNS(=O)(=O)c3ccc(F)cc3)ccc2OCC(=O)O)c1` [Example 195, 2-(3-cyano-5-fluorophenyl)-4-((4-fluorophenylsulfonamido)methyl)phenoxyacetic acid]: the IC50 is under 0.1 µM.

Turning to `CN(Cc1ccc(OCC(=O)O)c(-c2cc(F)cc(F)c2)c1)S(=O)(=O)c1ccc(F)cc1` [Example 106, 2-(3,5-difluorophenyl)-4-((4-fluoro-N-methylphenylsulfonamido)methyl)phenoxyacetic acid], the IC50 lay in the range of 0.1 to 1 µM.

Turning to `CN(Cc1ccc(OCC(=O)O)c(-c2ccccc2)c1)S(=O)(=O)c1ccc(F)cc1` [Example 178, 2-phenyl-4-((4-fluoro-N-methylphenylsulfonamido)methyl)phenoxyacetic acid], the 50% inhibitory concentration (IC50) was 1 to 10 µM.

As to `CN(Cc1ccc(OCC(=O)O)c(-c2ccn3ccnc3c2)c1)S(=O)(=O)c1ccc(F)cc1` [Example 128, 2-(imidazo[1,2-a]pyridin-7-yl)-4-((4-fluoro-N-methylphenylsulfonamido)methyl)phenoxyacetic acid], the IC50 fell in the range of 0.1 to 1 µM.

In the case of `CN(Cc1cc(-c2cc(F)cc(C#N)c2)c(OCC(=O)O)cc1F)S(=O)(=O)c1ccc(Cl)c(Cl)c1` [Example 211, 2-(3-cyano-5-fluoro-phenyl)-4-((3,4-dichloro-N-methylphenylsulfonamido)methyl)-5-fluorophenoxyacetic acid], the IC50 was under 0.1 µM.

As for `CN(Cc1ccc(OCC(=O)O)c(-c2cc(F)cc(F)c2)c1)S(=O)(=O)c1cccc(Cl)c1` [Example 68, 2-(3,5-difluorophenyl)-4-((3-chloro-N-methylphenylsulfonamido)methyl)phenoxyacetic acid], the IC50 was under 0.1 µM.

As to `CN(Cc1ccc(OCC(=O)O)c(-c2cccc3cnccc23)c1)S(=O)(=O)c1ccc(F)cc1` [Example 185, 2-(isoquinolin-5-yl)-4-((4-fluoro-N-methylphenylsulfonamido)methyl)phenoxyacetic acid], the IC50 fell in the range of 1 to 10 µM.

As for `CN(C)C(=O)c1cccc(-c2cc(CN(C)S(=O)(=O)c3ccc(F)cc3)ccc2OCC(=O)O)c1` [Example 138, 2-(3-dimethylaminocarbonylphenyl)-4-((4-fluoro-N-methylphenylsulfonamido)methyl)phenoxyacetic acid], the IC50 was in the range of 0.1 to 1 µM.

In the case of `COc1ccc(S(=O)(=O)N(C)Cc2cc(-c3cc(F)cc(C#N)c3)c(OCC(=O)O)cc2F)cc1F` [Example 197, 2-(3-cyano-5-fluorophenyl)-(5-fluoro-4-((3-fluoro-4-methoxy-N-methylphenylsulfonamido)methyl)phenoxy)acetic acid], the IC50 was under 0.1 µM.

In the case of `CN(Cc1ccc(OCC(=O)O)c(-c2cccc(C#N)c2)c1)S(=O)(=O)c1ccc(Cl)c(Cl)c1` [Example 56, 2-(3-cyanophenyl)-4-((3,4-dichloro-N-methylphenylsulfonamido)methyl)phenoxyacetic acid], the IC50 was under 0.1 µM.

With `CN(Cc1ccc(OCC(=O)O)c(-c2cccc(C(N)=O)c2)c1)S(=O)(=O)c1ccc(F)cc1` [Example 105, 2-(3-aminocarbonylphenyl)-4-((4-fluoro-N-methylphenylsulfonamido)methyl)phenoxyacetic acid], the IC50 lay within 0.1 to 1 µM.

Regarding `CN(Cc1ccc(OCC(=O)O)c(-c2cccc(Cl)c2)c1)S(=O)(=O)c1ccccc1` [Example 167, 2-(3-chlorophenyl)-4-((N-methylphenylsulfonamido)methyl)phenoxyacetic acid], the IC50 lay in the range of 1 to 10 µM.

With `CN(Cc1cc(-c2cccc(C#N)c2)c(OCC(=O)O)cc1Cl)S(=O)(=O)c1ccc(F)cc1` [Example 49, 2-(3-cyanophenyl)-4-((4-fluoro-N-methylphenylsulfonamido)methyl)-5-chlorophenoxyacetic acid], the IC50 was under 0.1 µM.

As for `N#Cc1cccc(-c2cc(CNS(=O)(=O)c3ccc(F)cc3)ccc2OCC(=O)O)c1` [Example 9, 2-(2-(3-cyanophenyl)-4-((4-fluorophenylsulfonamido)methyl)phenoxy)acetic acid], the half-inhibitory concentration (IC50) is under 0.1 µM.

Take `CC(C)N(Cc1ccc(OCC(=O)O)c(-c2cccc(C(F)(F)F)c2)c1)S(=O)(=O)c1cc(F)cc(F)c1` [Example 174, 2-(3-trifluoromethylphenyl)-4-((3,5-difluoro-N-isopropylphenylsulfonamido)methyl)phenoxyacetic acid]: the IC50 lay in the range of 1 to 10 µM.

With `COc1ccc(S(=O)(=O)NCc2ccc(OCC(=O)O)c(-c3cc(F)cc(C#N)c3)c2)cc1F` [Example 196, 2-(3-cyano-5-fluorophenyl)-4-((3-fluoro-4-methoxyphenylsulfonamido)methyl)phenoxyacetic acid], the IC50 was under 0.1 µM.

As for `CN(Cc1ccc(OCC(=O)O)c(-c2cccc(C#N)c2)c1)S(=O)(=O)c1ccc(Cl)c(F)c1` [Example 65, 2-(3-cyanophenyl)-4-((3-fluoro-4-chloro-N-methylphenylsulfonamido)methyl)phenoxyacetic acid], the IC50 was under 0.1 µM.

Consider `COc1cc(F)cc(-c2cc(CN(C)S(=O)(=O)c3ccc(F)cc3)ccc2OCC(=O)O)c1` [Example 96, 2-(3-methoxy-5-fluorophenyl)-4-((4-fluoro-N-methylphenylsulfonamido)methyl)phenoxyacetic acid], for which the 50% inhibitory concentration (IC50) is under 0.1 µM.

Turning to `CN(Cc1ccc(OCC(=O)O)c(-c2cccc(Br)c2)c1)S(=O)(=O)c1ccc(F)cc1` [Example 142, 2-(3-bromophenyl)-4-((4-fluoro-N-methylphenylsulfonamido)methyl)phenoxyacetic acid], the 50% inhibitory concentration (IC50) was 0.1 to 1 µM.

For `CN(Cc1ccc(OC(C)(C)C(=O)O)c(-c2cccc(C(F)(F)F)c2)c1)S(=O)(=O)c1ccc(F)cc1` [Example 34, 2-(2-(3-trifluoromethylphenyl)-4-((4-fluoro-N-methylphenylsulfonamido)methyl)phenoxy)-2-methylpropanoic acid], the IC50 lay within 1 to 10 µM.

As to `CN(Cc1ccc(OCC(=O)O)c(-c2ccc(F)c(F)c2)c1)S(=O)(=O)c1ccccc1` [Example 154, 2-(3,4-difluorophenyl)-4-((N-methylphenylsulfonamido)methyl)phenoxyacetic acid], the IC50 fell in the range of 1 to 10 µM.

On to `COc1cc(F)cc(-c2cc(CN(C)S(=O)(=O)c3ccc(F)c(F)c3)ccc2OCC(=O)O)c1` [Example 46, 2-(3-fluoro-5-methoxyphenyl)-4-((3,4-difluoro-N-methylphenylsulfonamido)methyl)phenoxyacetic acid], for which the IC50 was under 0.1 µM.
